Structure (SMILES) | melting point [°C]
CN(CCOc1ccc(C=O)cc1)c1nc2ccccc2o1 | 97 to 98
CCN(CC)CCNC(=O)c1cc(Cl)c(N)cc1OC1CCCCC1=O (stereo not given) | 96 to 99
O=C1CCCc2cc(=O)[nH]cc21 | 246 to 248
COc1cc2c(cc1-c1cccnc1)-c1c(Cl)c3c(n1CC2)C(=O)N(C(C)(C)C)CCCC3 | 190 to 192
CCCc1nc2ccnn2c(O)c1Cc1ccc(-c2ccccc2-c2nnn[nH]2)cc1 | > 320
CSc1cc(C(F)(F)F)nn1-c1ccc(NC(=O)c2cccnc2F)cc1 | 167 to 168
CCCc1c(C(=O)OCC)c2c3c(ccc2n1C)OC1c2ccc(OC)cc2CCN1C3 (stereo not given) | 150 to 151
N#Cc1ccc(N(CCOc2ccc(OCc3ccccc3)cc2)n2cnnc2)cc1 | 160 to 162
CCCCn1c(CCOC)nc2c(N)nc3ccccc3c21 | 149 to 151
COc1ccc(C(=O)N2c3ccccc3SC2C#N)cc1 (stereo not given) | 122 to 123
CN1CCN2CCNC2(c2ccccc2)c2cc(Cl)ccc21 (stereo not given) | 100 to 102
Cc1ccc(-c2cc(S(=O)(=O)c3ccc(N)cc3)cc(N3CCCC3)n2)cc1 | 250 to 251
CC(C)NNC(=O)NC1c2ccccc2Oc2ccccc21 | 162
Cc1ccccc1-c1c(C(=O)N(C)Cc2cc(C(F)(F)F)cc(C(F)(F)F)c2)n(C)c(=O)c2cccnc12 | 183 to 185
Cc1ccc(NC(=O)c2ccccc2SSc2ccccc2C(=O)Nc2ccc(C)c(C)c2)cc1C | 224 to 227
Nc1cc(-n2cc(C(=O)O)c(=O)c3cc([N+](=O)[O-])c(F)c(F)c32)c(F)cc1F | 142 to 143
COC(=O)C1(Cl)CC1C(=O)O (stereo not given) | 77.7 to 79.1
NC(C=Cc1ccc(Cl)cc1)=NO | 102 to 104
O=C1COc2ccc3ccccc3c2N1 | 219 to 220
Cc1cc(-n2cncn2)c2cccc(OCc3c(Cl)ccc(S(=O)(=O)N4CCC[C@H]4C(=O)NCCCN(C)C)c3Cl)c2n1 | 105
CCCCCCCCNC(=O)c1cnc2cccc(C)n2c1=O | 108 to 110
CC(=O)OCC1COc2c(cc(Cl)cc2[N+](=O)[O-])N1 (stereo not given) | 76 to 84
COC1=C(OC)C(=O)C2=C(CCC(CCOc3ccc4ccccc4n3)CC2)C1=O | 134 to 136
CCCCc1ccc(N2CCC(CCOc3ccc(C(=O)OCC)cc3)CC2)nn1 | 91.4
COc1ccc(CN(C)CCSc2ccc(NC(=O)c3cccc4c(=O)c5ccccc5[nH]c34)cc2)cc1OC | 113

Structure (SMILES) | melting point [°C]
O=C(Nc1ccc2c(c1)NCCC2)c1cc2cc(F)ccc2n1Cc1cccc(F)c1 | 149 to 151
Cc1cc(OCCN)ccc1NC(=O)c1ccc(N2CCNCC2)cc1 | > 250
CCCn1c(=O)c(C=C(C#N)C#N)c2n(c1=O)CCS2 | 135 to 137
CCOC(=O)c1csc(NC(=O)c2cc(OC)c(OC)cc2O)n1 | 218 to 220
N#CC(Cc1c[nH]cn1)(c1ccc(Cl)cc1)c1cccc(Cl)c1 (stereo not given) | 138 to 140
Nc1ccnc(N2CCN(c3nc4cccccc-4n3)CC2)n1 | 205 to 208
Cc1c(C)c2c(c(C)c1NC(=O)c1ccc(F)cc1)C(c1ccc(C(C)C)cc1)C1(CCN(C)CC1)O2 (stereo not given) | 271 to 272
CCCC1Cc2c3c(c(C)c(C)c2C1=O)OC(C(=O)O)C3 (stereo not given) | 161
CC1(c2nn(-c3ccc(N)cc3Cl)c(=O)o2)CC1 | 195 to 196
Fc1cc(OCCBr)ccc1OCc1ccccc1 | 63 to 65
O=C(c1ccccc1)c1cccc2c(Cl)c[nH]c12 | 145 to 149
Cc1nnc(CN2C(=O)c3ccccc3C2=O)n1-c1ccc(Cl)cc1C(=O)c1ccccc1 | 215 to 218
COc1ccc(C(C#Cc2ccccc2)Cc2ncc(C)o2)cc1OC1CCCC1 (racemic) | 103 to 104
Cc1ccsc1-c1nc(COc2ccc(CCCCn3ccnc3)cc2)co1 | 88 to 89
CCCn1c(=O)c(N)nc2ccccc21 | 191 to 192
CCOCc1cc(OC)c(-c2ccc(C[C@H](NC(=O)c3c(Cl)cccc3Cl)C(=O)OCC)cc2)c(OC)c1 | 91 to 94
CS(=O)(=O)Oc1ccc(CCOc2ccc(-c3ncccc3C(=O)O)cc2C#N)cc1 | 85 to 86
C#CCN1C(=O)COc2cc(F)c([N+](=O)[O-])cc21 | 105 to 107
NC(N)=Nc1nc(-c2cccc(-c3n[nH]c(N)n3)n2)cs1 | > 300
Nc1cccc(-c2ccc(CCN3CCC4(CC3)NC(=O)N(Cc3ccccc3)C4=O)cc2)n1 | 190
COc1ccc2c(Cl)cc3nc(C(=O)O)cn3c2c1 | 277 to 278
CC(C)(C)NNC(=O)c1nn(-c2ccc(F)cc2F)c2c1C1CCC2C1 (stereo not given) | 140 to 142
COC(=O)c1ccc2oc3c(c(=O)c2c1)CCC3=Cc1ccccc1C | 203 to 205
NC1CCc2ccccc2N(CC(=O)OCc2ccccc2)C1=O (stereo not given) | 105 to 107
O=S1(=O)N=CN(C2CC2)c2c(Cl)cccc21 | 159 to 160

Structure (SMILES) | melting point [°C]
CCCCCCCC(=O)N(C)Cc1cccc(-c2ccc(C=CC(=O)O)s2)c1 | 102 to 104
COCCOCCOc1ccc(/C=C/C(=O)O)c(Oc2ncc(C(F)(F)F)cc2Cl)c1 | 134
CC(C)(C)OC(=O)N1CCN(c2ccc(NC(=O)Nc3cc(Cl)ccc3NS(C)(=O)=O)cc2)CC1 | 127
OCC(O)COc1cccc2cccnc12 (stereo not given) | 193 to 194
O=c1cc(-c2ccncn2)nc2n1CCCCC2 | 148 to 150
COc1ccc(C[C@H](NC(=O)[C@H](CC(C)C)NC(=O)OCc2ccccc2)C(=O)CSC)cc1 | 100 to 101
CCc1cc(-c2nc(C)c(-c3ccnc(Nc4ccc(S(=O)(=O)NCCO)cc4)n3)s2)ccn1 | 233 to 234
O=C1CN2C(=O)N(c3cc(Cl)cc(Cl)c3)C(=O)C2(Cc2ccc(Br)cc2)C1 (stereo not given) | 85.4
CC(C)(C)c1cc(SC2CCN(S(=O)(=O)c3ncc(CO)[nH]3)CC2)cc(C(C)(C)C)c1O | 122 to 123
CCOC(=O)c1cccc2c1N=C(c1ccccc1)CC2=O | 218 to 219
COC(=O)c1ccc(Cl)cc1NC(=O)CSc1nc2ccccc2s1 | 117 to 120
COc1ccc2c(c1)CCC1CC(=O)NN=C21 (stereo not given) | 198
O=C(O)CC[C@H](NC(=O)c1cc2ccccc2[nH]1)C(=O)NC(c1ccc(Cl)cc1)c1ccc(Cl)cc1 | 207
Cc1ccc(-c2cn(C)cc(-c3ccc(C)cc3)c2=O)cc1 | 212 to 214
CC1CCN(C(=O)Oc2ccccc2-c2ccccc2)CC1 | 85 to 86
N#Cc1ccc(-c2c[nH]cn2)cc1 | 164 to 167
C[C@]1(CN2CCN(C(=O)OCC=Cc3ccc(C(F)(F)F)cc3)CC2)Cn2cc([N+](=O)[O-])nc2O1 | 132 to 133
COC(=O)c1nc(C2CC2)nc(N)c1Cl | 147 to 148
Cc1cc2c(-c3ccccc3F)nc(=O)[nH]c2s1 | 282 to 284
CCOC(=O)CCCn1c(Nc2cnc(N3CCCC3)cc2C)nc2c(Cl)ccc(C(CC)CC)c21 | 195 to 196
COc1cc(C)c2ccc(=O)[nH]c2n1 | 214 to 216
CCOC(=O)c1nc(NC(C)=O)sc1Cc1cccc(SC)c1 | 188
COc1ccccc1Oc1c(Cl)nc(-c2cccc(OCc3ccccc3)c2)nc1Cl | 127 to 132
Cc1oc(C=Cc2ccc(Cl)cc2)nc1CO | 129 to 130
CCC1c2c(ncn2C)CCN1C(=S)NC(C)C (stereo not given) | 196

Structure (SMILES) | melting point [°C]
Nc1cc(C(=O)c2ccccc2)ccc1N1CCOCC1 | 138
COc1ccc(C(=O)CCCCCBr)c(Cl)c1Cl | 52 to 53
CC(C)CC1N=C(c2ccccc2)c2cc(Cl)ccc2NC1=O (stereo not given) | 213
Clc1cn2c(Cl)cnc2c(Br)n1 | 100 to 101
COc1cc(OC)c(C(=O)N2CCc3cc(O)ccc3C2)cc1OC | 180 to 188
CC(c1ccc2[nH]c(-c3cccnc3)nc2c1)n1ccnc1 (stereo not given) | 254
CC(CSC(=O)c1ccccc1)C(=O)N1Cc2ccccc2CC1C(=O)O (stereo not given) | 154 to 155
CCOC(=O)c1cc2cccc(OCc3ccccc3)c2[nH]1 | 82 to 83
COC(=O)c1cc(OC)c(C(=O)OC)cc1OC | 141 to 143
C=C1N(c2ccccc2)C(=O)OC12CCN(CCC=C(c1ccc(F)cc1)c1ccc(F)cc1)CC2 | 136 to 138
Cc1ccc(Sc2ccccc2C(=O)O)c([N+](=O)[O-])c1 | 189 to 191
NCC(C(=O)O)c1c[nH]c2cc(Cl)ccc12 (stereo not given) | 245 to 247
O=C(Nc1cccnc1Cl)c1ccccc1F | 122
O=C(O)CCc1conc1-c1ccc(Cl)c(Cl)c1 | 181 to 182
O=C(O)c1cc(OCc2ccccc2)c(OCc2ccccc2)cn1 | 204
CCCCNC(=O)Nc1sc2c(c1C#N)CCCC2 | 170 to 171
COc1ccc(C[C@@H]2COc3ccc(OCc4ccc5ccccc5n4)cc3[C@@H]2O)cc1C(=O)O (relative stereo) | 167 to 169
CC1(CN(c2ccc(Cl)cc2)S(C)(=O)=O)SCCS1 | 114 to 117
O=C1Cn2cccc2Sc2ccc(Cl)cc21 | 106 to 107
c1ccc(COCCNc2ccc(Nc3ncnc4cc(-c5ccccc5)sc34)cc2)cc1 | 201 to 203
COC(=O)C1CCc2cc(OCc3ccccc3)c(OCc3ccccc3)cc2C1O (stereo not given) | 121 to 124
CCC1(c2cccs2)OCC(=O)Nc2ccc(-c3sc(C#N)cc3C)cc21 (stereo not given) | 182 to 184
CCCCOCCOc1ccc(-c2ccc3c(c2)C=C(C(=O)Nc2ccc(C(O)c4ccccn4)c(C)c2)CCN3C(=O)C(F)(F)F)cc1 (stereo not given) | 122 to 125
N#Cc1c(N2CCCN(c3cccc(C(F)(F)F)c3)CC2)cc[nH]c1=S | 247 to 248
CC(C)COc1ccc(NC(=O)c2cnn(-c3ccc(F)cc3)c2O)cc1C#N | 207 to 208

Source: a melting point compilation (Tetko et al.; mined from patent text by program, amines drawn as free bases though some values may be those of a salt)
